“Also recorded” adds a separate entry of the source.
Key:
FTase = FTase (Rattus norvegicus, UniProt Q02293+Q04631); test: Continuous fluorescence assay: transfer of FPP and analogs to N-dansyl-GCVLS by FTase; type: biochemical; details: excitation 340 nm, 505 nm
Source text: FIG. 8. Progress Curves for Transfer of FPP and Analog Pyrophosphates to Dansyl-GCVLS by FTase. The reaction is monitored for fluorescence intensity at 505 nm with excitation at 340 nm. (a) FPP, (b) AGPP, (c) 8-(pentafluoroaniline)geranyl pyrophosphate, (d) blank.
Continuous Fluorescence Assay for Analog Transfer: An important requirement for these studies is the development of a rapid technique for evaluating whether FPP analogs that are efficiently and appropriately transferred to target substrates by FTase. The analogs were evaluated for their ability to be transferred by FTase to the pentapeptide N-dansyl-GCVLS in a continuous fluorescence assay. (See references 78, 79, infra). There is a time dependent increase in the fluorescence of the dansyl group due to the local increase in hydrophobicity as the adjacent cysteine residue is isoprenylated. […] (FIG. 8).

[1] = target: T1, recombinant rat brain FTase (Rattus norvegicus, UniProt Q02293+Q04631); test: Inhibition of FTase-catalyzed transfer of [^3 H]farnesyl from [^3 H]FPP to H-Ras; type: biochemical
T1 construct: 6xHis (N); made in house; host or cells: Sf9 insect cells (baculovirus)
Experimental: FIG. 2. Differential Inhibition of Farnesyltransferase and CAAX Geranylgeranyltransferase by AGPP. The assay mixtures contained (in a final volume of 25 μl) various components as described in "Experimental Procedures". After incubation for 15 min at 37° C., the amount of [^3 H]prenyl group transferred to the appropriate protein substrate [H-Ras (CVLS) for FTase and H-Ras (CVLL) for CAAX GGTase] was measured by precipitation with ethanol-HCl. The assays contained 10 ng recombinant rat FTase, 5 μM H-Ras, and 0.6 μM [^3 H]FPP (33,000 dpm/pmol) or 100 ng recombinant rat CAAX GGTase, 5 μM H-Ras CVLL, and 1 μM [^3 H]GGPP (33,000 dpm/pmol) and the indicated concentration of unlabeled AGPP. The 100% of control values were 1.1 and 5.5 pmol of [^3 H]farnesyl or [^3 H]geranylgeranyl transferred per tube. Each value is the average of duplicate incubations and is representative of two separate experiments.
FIG. 3. Inhibition of Farnesyltransferase by AGPP and I-AGPP. The enzymatic activity was measured in the presence of the various concentrations of either AGPP or I-AGPP as described in […]. The 100% control values were 1.9 and 2 pmol. Each value is the average of duplicate incubations and is representative of three separate experiments.
Assay for Farnesyltransferase Activity--Farnesyltransferase activity was assayed by measuring the amount of [^3 H]farnesyl or [^3 H]anilinogeranyl transferred from [^3 H]FPP or [^3 H]AGPP to recombinant p21^H-ras, as described previously (31). Unless otherwise stated, each reaction mixture contained the following components in a final volume of 25 μl: 50 mM Tris (pH 7.4), 20 mM KCl, 0.2% octyl β-glucopyranoside, 1 mM dithiothreitol, 10-20 ng recombinant FTase, 5 μM p21^Ha-ras, 3 mM MgCl2, 50 μM ZnCl2, and 0.6 μM [^3 H]FPP (33,000 dpm/pmol; American Radiochemical Co.) or 0.1-5 μM [^3 H]AGPP (37,400 dpm/pmol). Following incubation for the indicated times at 37° C., the amount of [^3 H]prenyl transferred was measured by ethanol-HCl precipitation and filtration on glass fiber filters with modification as previously described (19). A blank value was determined in parallel incubation mixtures containing no enzyme. This blank value was subtracted from each reaction before calculating pmol [^3 H]prenyl transferred.
Inhibition of Farnesyltransferase by AGPP--AGPP was tested for its ability to inhibit recombinant rat brain FTase activity in vitro. AGPP inhibited FTase in a concentration dependent manner with an IC50 value of 0.6 μM (FIG. 2).
Kinetic analyses were carried out to investigate the mechanism of FTase inhibition by AGPP. […] The same Km value was observed when the Lineweaver-Burke plot was analyzed under different Ras and AGPP concentrations in the presence of a constant concentration of FPP. […] AGPP inhibition is reversible, since transfer of [^3 H]-FPP by FTase to Ras was restored by isolating the farnesyltransferase by gel filtration chromatography after preincubation in the presence of 50 μM AGPP (data not shown).
The assays contained 10 ng recombinant rat FTase, 5 μM H-Ras, and 0.6 μM [^3 H]FPP (33,000 dpm/pmol) or 100 ng recombinant rat CAAX GGTase, 5 μM H-Ras CVLL, and 1 μM [^3 H]GGPP (33,000 dpm/pmol) and the indicated concentration of unlabeled AGPP. The 100% of control values were 1.1 and 5.5 pmol of [^3 H]farnesyl or [^3 H]geranylgeranyl transferred per tube.

SMILES: C/C(=C\COP(=O)(O)OP(=O)(O)O)CC/C=C(\C)CNc1ccccc1 [AGPP, (E,E)-8-Aniline-3,7-dimethyl-2,6-octadiene pyrophosphate]
- time-dependent increase in dansyl fluorescence / transfer to dansyl peptide, in words (FTase): transferred efficiently
- time-dependent increase in dansyl fluorescence / transfer to dansyl peptide, in words (FTase; listed as 1): Time-dependent increases in the fluorescence of the dansyl group
- IC50 ([1]; 0.6 μM [^3 H]FPP, 5 μM H-Ras, 37° C., 15 min): 600 nM
- mechanism of FTase inhibition with respect to Ha-Ras protein ([1]; constant FPP, various Ras): noncompetitive inhibitor with respect to Ha-Ras protein; also recorded: did not apparently affect the Km value for the substrate protein Ha-Ras
- mechanism of FTase inhibition with respect to FPP ([1]; double reciprocal plots, various [^3 H]FPP, constant Ras): competitive inhibitor of FTase with respect to FPP; also recorded: changed the Km value for FPP but does not alter the Vmax; also recorded: potent competitive inhibitor
- reversibility of FTase inhibition ([1]; gel filtration after preincubation with 50 μM AGPP): reversible
- inhibition of FTase, in words ([1]; in vitro, unlabeled compound): competed at essentially the same concentrations

From patent US6284910A, “Farnesyl pyrophosphate analogs” (University of Kentucky Research Foundation, priority 1999, dated 2001)
